Assay results: patent US20240327408A1, “COMPOUNDS CONTAINING TETRAHYDRONAPHTHYRIDINONE OR TETRAHYDROPYRIDOPYRIMIDINONE SKELETON, PREPARATION METHOD THEREFOR AND PHARMACEUTICAL USE THEREOF” (CHINA PHARMACEUTICAL UNIVERSITY, priority 2021, published 2024)

Experiments:
[1] = target: T1, hClpP (Homo sapiens, UniProt Q16740); test: activating ClpP hydrolysis of FITC-casein (fluorescence kinetic detection); format: biochemical; settings: hClpP 1 μM, FITC-Casein 4 μM, 37° C.
T1 construct: made in house
Experimental: The specific procedures were as follows:
Test compounds were each prepared into a 100 mM stock solution in DMSO and stored. and 1 μL of stock solution of each of the compounds was taken and diluted to 10 mM by adding 9 μL of DMSO for later use.
The compounds of formula I of the present invention were each diluted at concentrations of 200 μM, 50 μM, 10 μM, 2 μM, 500 nM, 100 nM, 20 nM, and 2 nM in an assay buffer. 50 μL of each of the compounds at different concentrations was added to each well, with 2 replicate wells.
The protein was diluted to 4 μM in an assay buffer. 25 μL of protein was added to each well, and incubated at 37° C. for 30 min. The final concentration was 1 μM.
25 μL of FITC-Casein was added to each well. The final concentration was 4 μM. The mixture was immediately loaded on the machine for detection.
FITC-Casein and FITC-Casein+ClpP were used as negative controls.
The detection temperature was 37° C. The plate was shaken for 3 s. […] Kinetic parameters were set, and scanning was performed once every 1 min for 15 min.

[2] = test system: MV4; 11 cells; test: inhibiting the growth of MV4; 11 cells; format: cell-based; settings: Homo sapiens

T1 sequence (Q16740 57-277): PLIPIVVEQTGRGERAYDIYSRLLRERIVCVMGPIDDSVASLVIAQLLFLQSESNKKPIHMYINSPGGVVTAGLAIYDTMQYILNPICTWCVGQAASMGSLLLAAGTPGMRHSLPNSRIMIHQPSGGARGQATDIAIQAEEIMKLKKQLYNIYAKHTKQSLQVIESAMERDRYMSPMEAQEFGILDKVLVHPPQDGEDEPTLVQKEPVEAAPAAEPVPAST

EC50 [1] | IC50 [2] | Structure (SMILES)
10 to 100 µM | 1000 to 10000 nM | Cn1ccnc1Cn1c(=O)c2c(c3cccnc31)CCN(Cc1ccccc1)C2 [Compound I-65, 3-benzyl-6-((1-methyl-1H-imidazol-2-yl)methyl)-2,3,4,6-tetrahydropyrido[3,4-c][1,8]naphthyridine-5-(1H)-one]
10 to 100 µM | 1000 to 10000 nM | Cn1cnc(Cn2c(=O)c3c(c4cccnc42)CCN(Cc2ccccc2)C3)c1 [Compound I-66, 3-benzyl-6-((1-methyl-1H-imidazol-4-yl)methyl)-2,3,4,6-tetrahydropyrido[3,4-c][1,8]naphthyridine-5-(1H)-one]
10 to 100 µM | 1000 to 10000 nM | Cn1cncc1Cn1c(=O)c2c(c3cccnc31)CCN(Cc1ccccc1)C2 [Compound I-67, 3-benzyl-6-((1-methyl-1H-imidazol-5-yl)methyl)-2,3,4,6-tetrahydropyrido[3,4-c][1,8]naphthyridine-5-(1H)-one]
10 to 100 µM | 1000 to 10000 nM | Cc1noc(C)c1Cn1c(=O)c2c(c3cccnc31)CCN(Cc1ccccc1)C2 [Compound I-68, 3-benzyl-6-((3,5-dimethylisoxazol-4-yl)methyl)-2,3,4,6-tetrahydropyrido[3,4-c][1,8]naphthyridine-5-(1H)-one]
10 to 100 µM | 1000 to 10000 nM | Cc1ncc(Cn2c(=O)c3c(c4cccnc42)CCN(Cc2ccccc2)C3)s1 [Compound I-69, 3-benzyl-6-((2-methylthiazol-5-yl)methyl)-2,3,4,6-tetrahydropyrido[3,4-c][1,8]naphthyridine-5-(1H)-one]
< 1 µM | < 1000 nM | O=c1c2c(c3cccnc3n1Cc1ccc(C(F)(F)F)cc1)CCN(Cc1ccccc1)C2 [Compound I-70, 3-benzyl-6-(4-(trifluoromethyl)benzyl)-2,3,4,6-tetrahydropyrido[3,4-c][1,8]naphthyridine-5-(1H)-one]
< 1 µM | < 1000 nM | O=c1c2c(c3cccnc3n1Cc1ccc(F)cc1)CCN(Cc1cccc(F)c1)C2 [Compound I-71, 3-(3-fluorobenzyl)-6-(4-fluorobenzyl)-2,3,4,6-tetrahydropyrido[3,4-c][1,8]naphthyridine-5-(1H)-one]
< 1 µM | < 1000 nM | O=c1c2c(c3cccnc3n1Cc1ccc(F)cc1)CCN(Cc1cccc(Cl)c1)C2 [Compound I-72, 3-(3-chlorobenzyl)-6-(4-fluorobenzyl)-2,3,4,6-tetrahydropyrido[3,4-c][1,8]naphthyridine-5-(1H)-one]
< 1 µM | < 1000 nM | O=c1c2c(c3cccnc3n1Cc1ccc(F)cc1)CCN(Cc1cccc(Br)c1)C2 [Compound I-73, 3-(3-bromobenzyl)-6-(4-fluorobenzyl)-2,3,4,6-tetrahydropyrido[3,4-c][1,8]naphthyridine-5-(1H)-one]
< 1 µM | < 1000 nM | O=c1c2c(c3cccnc3n1Cc1ccc(Cl)cc1)CCN(Cc1cccc(F)c1)C2 [Compound I-74, 3-(3-fluorobenzyl)-6-(4-chlorobenzyl)-2,3,4,6-tetrahydropyrido[3,4-c][1,8]naphthyridine-5-(1H)-one]
< 1 µM | < 1000 nM | O=c1c2c(c3cccnc3n1Cc1ccc(Cl)cc1)CCN(Cc1cccc(Cl)c1)C2 [Compound I-75, 3-(3-chlorobenzyl)-6-(4-chlorobenzyl)-2,3,4,6-tetrahydropyrido[3,4-c][1,8]naphthyridine-5-(1H)-one]
< 1 µM | < 1000 nM | O=c1c2c(c3cccnc3n1Cc1ccc(Cl)cc1)CCN(Cc1cccc(Br)c1)C2 [Compound I-76, 3-(3-bromobenzyl)-6-(4-chlorobenzyl)-2,3,4,6-tetrahydropyrido[3,4-c][1,8]naphthyridine-5-(1H)-one]
< 1 µM | < 1000 nM | O=c1c2c(c3cccnc3n1Cc1ccc(Br)cc1)CCN(Cc1cccc(F)c1)C2 [Compound I-77, 3-(3-fluorobenzyl)-6-(4-bromobenzyl)-2,3,4,6-tetrahydropyrido[3,4-c][1,8]naphthyridine-5-(1H)-one]
